Data set [1] can be described thus: in vivo. As to conditions: rat, po, 500 mg/kg. The method, then: 1-deoxy-1-L-theanine-D-fructopyranose was recorded as a theanine glycoside 1, 1-deoxy-1-L-theanine-D-galactopyranose was recorded as a theanine glycoside 2, and 1-deoxy-1-L-theanine-D-ribopyranose was recorded as a theanine glycoside 3. • 1. Experimental animals: Male SD rats with the body weight of (180±20) g were used. • 2. Administration and sample collection: The rats were intragastrically administered (n=6), which were randomly divided into two groups, including a theanine group and a theanine glycoside group. The rats were subjected to fasting without limitation of water for 12 h before administration and then allowed to drink water after intragastric administration. The intragastric administration dose was 500 mg/kg. 1 h, 2 h, 4 h, 8 h and 12 h before and after the administration, 0.5 mL of blood was collected from eye sockets of 6 rats in each group, respectively. Blood samples were centrifuged at 3,000 g for 15 min, supernatants were separated to obtain plasma samples, and the plasma samples were stored at −80° C. • 3. Instrument conditions and determination of plasma samples:
(§1) Instrument: SCIEX Triple Quad™ 5500 LC-MS/MS was used.
Drawing of a standard curve: 100 μL of blank plasma of the rats was taken, added into 1.5 mL of a 70% methanol aqueous solution and mixed in vortex for 30 s, and a resulting mixture was subjected to ultrasonic treatment in an ice water bath for 10 min, followed by standing at −20° C. for 20 min to precipitate a protein. The protein was centrifuged briefly for 15 s for 2 times, and a supernatant was taken out, dried by a vacuum concentrator at 4° C. and redissolved with 200 μl of methanol. 200 μL of a series of standard solutions of a tested compound and 10 μL of an internal standard (DL-4-chlorophenylmethylamino) were sequentially added to prepare plasma samples of the tested compound with a plasma concentration of 0.1 μM, 1 μM, 10 μM, 100 μM, 1,000 μM and 10,000 μM respectively, followed by LC-MS/MS analysis. With the concentration of the tested compound (x) as the abscissa and the ratio of peak areas of the tested compound and the internal standard (y) as the ordinate, regression calculation was performed by a weighted least square method to obtain a linear regression equation, namely a standard curve. According to the standard curve, the linear range of the tested compound in the plasma of the rats was 0.1 μM-10,000 μM as determined by an LC-MS/MS method. […]
The half-life T1/2 was calculated according to formulas below: […]

The nature of data set [2]: in vivo. The settings on record: mouse, po, 500 mg/kg. The protocol:
1-deoxy-1-L-theanine-D-fructopyranose was recorded as a theanine glycoside 1, 1-deoxy-1-L-theanine-D-galactopyranose was recorded as a theanine glycoside 2, and 1-deoxy-1-L-theanine-D-ribopyranose was recorded as a theanine glycoside 3. • 1. Experimental animals: Male C57BL/6J mice with the body weight of (20±2) g were used. • 2. Administration and sample collection: The mice were intragastrically administered (n=6), which were randomly divided into two groups, including a theanine group and a theanine glycoside group. The mice were subjected to fasting without limitation of water for 12 h before administration and then allowed to drink water after intragastric administration. The intragastric administration dose was 500 mg/kg. 1 h, 2 h, 4 h, 8 h and 12 h before and after the administration, 6 mice in each group were killed by cervical dislocation and then dissected to obtain brain tissues respectively, and the brain tissues were stored at −80° C. for subsequent detection. • 3. Instrument conditions and determination of brain tissue samples:
as §1
Drawing of a standard curve: 20 mg of blank brain tissues of the mice were taken, added into 1.5 mL of a 70% methanol aqueous solution and mixed in vortex for 30 s, and a resulting mixture was subjected to ultrasonic treatment in an ice water bath for 10 min, followed by standing at −20° C. for 20 min to precipitate a protein. The protein was centrifuged briefly for 15 s for 2 times, and a supernatant was taken out, dried by a vacuum concentrator at 4° C. and redissolved with 200 μL of methanol. 200 μl of a series of standard solutions of a tested compound and 10 μl of an internal standard (DL-4-chlorophenylmethylamino) were sequentially added to prepare brain tissue samples of the tested compound with a brain tissue concentration of 0.1 μM, 1 μM, 10 μM, 100 μM, 1,000 μM and 10,000 μM respectively, followed by LC-MS/MS analysis. With the concentration of the tested compound (x) as the abscissa and the ratio of peak areas of the tested compound and the internal standard (y) as the ordinate, regression calculation was performed by a weighted least square method to obtain a linear regression equation, namely a standard curve. According to the standard curve, the linear range of the tested compound in the plasma of the mice was 0.1 μM-10,000 μM as determined by an LC/MS/MS method. […]

In general, half-life refers to the time in which the quantity being followed falls by half. Read a low half-life as fast loss. Turning to `CCNC(=O)CC[C@H](N)C(=O)O` [Theanine, L-theanine], the half-life in data set [1] (male, SD) was 2.05 ± 0.12 h; in data set [2] (male, C57BL/6J), 2.07 ± 0.19 h.
Turning to `CCNC(=O)CC[C@H](NC1O[C@H](CO)[C@H](O)[C@H](O)[C@H]1O)C(=O)O` (stereo partly drawn) [Theanine glycoside 2, 1-deoxy-1-L-theanine-D-galactopyranose], the “T1/2 in the blood” value in data set [1] is listed as 19.94 ± 1.06 h. In data set [2], the “T1/2 in the brain” value is given as 13.55 ± 1.55 h.
The like results for `CCNC(=O)CC[C@H](NCC1(O)OC[C@@H](O)[C@@H](O)[C@@H]1O)C(=O)O` (stereo partly drawn) [Theanine glycoside 1, 1-deoxy-1-L-theanine-D-fructopyranose] were, in that order, 25.70 ± 1.31 h and 19.56 ± 1.54 h.
The like results for `CCNC(=O)CC[C@H](NC1OC[C@@H](O)[C@@H](O)[C@H]1O)C(=O)O` (stereo partly drawn) [Theanine glycoside 3, 1-deoxy-1-L-theanine-D-ribopyranose] were, in that order, 16.80 ± 1.93 h and 10.85 ± 0.54 h.

(Values after US12133857B2, “Method for prolonging half-life of theanine in vivo” (Anhui Agricultural University, priority 2023, dated 2024).)
